Converted amounts (≈) assume the structure as drawn. “And” between values parts separate entries of the source, which are not always exact repeats. Identical values can stand only once.
What was measured:
Format in all cases: cell-based
[1] = test system: Enterococcus faecalis vanA (strain E0155); test: MIC (microdilution) against E. faecalis; details: Enterococcus faecalis, read-out: MIC E. faecalis
Description: (§1) Staphylococcus aureus str. Newman, Enterococcus faecalis vanA (strain E0155), Enterococcus faecium vanA (strain E1654), Escherichia coli ATCC 25922, Escherichia coli D21f2 with a truncated LPS barrier, Escherichia coli JW5503 (ΔtolC) ([49]), Pseudomonas aeruginosa ATCC 27853, and Pasteurella haemolytica ATCC 29701 were grown in Mueller-Hinton Broth (MHB) (Oxoid, Basingstoke, UK) and incubated at 37°C.
(§2) The minimal inhibitory concentration was determined using the microdilution method following the guidelines of the European Committee on Antimicrobial Susceptibility Testing ([50]). Briefly, a series of twofold dilutions in MHB of each compound were made in a 96-well plate, with final concentrations ranging from 50 to 0.39 µg/mL in 100 µL final volume per well. A hundred microliters of 1:100 dilution of an overnight culture of the correspondent bacteria in MHB was added to each well. Plates were incubated for 18 hours at 37°C. MIC was recorded as the lowest concentration where no growth was detected as measured by optical density at 600 nm (OD600) using Spectramax M5 (Molecular Devices LLC, San Jose, CA, USA). […] Wells containing bacteria with or without 1% DMSO and medium alone were included as controls in every plate.

[2] = test system: Escherichia coli ATCC 25922; test: MIC (microdilution) against E. coli; details: Escherichia coli, ATCC25922; Table ST1; read-out: MIC E. coli
Description: as §1, §2

HEK293 cells = test: in vitro; details: LC50/MIC (HEK293 / S. aureus)
Description: (§3) HEK293 cells and the human hepatocellular carcinoma cells (HepG2) were routinely cultured in 75-cm^2 culture flasks (Corning Incorporated) on high-glucose Dulbecco’s modified Eagle medium (DMEM) containing glutaMax and phenol red (Gibco) supplemented with 1% penicillin/streptomycin (Gibco) and 10% fetal bovine serum (FBS) (Gibco). Cells were maintained at 37°C and 5% CO2.
(§4) Cytotoxicity assays with HEK293 and HepG2 cells were performed in 96-well plates seeded with 5 × 10^4 cells/well and incubated for 24 hours to reach 80%–90% confluency. Exterior wells were filled with only medium to prevent evaporation. Culture medium was removed from the cells, and 100 µL of exposure medium [high-glucose DMEM without phenol red (Gibco)] was added to avoid a potential interaction between FBS components or antibiotics and tested compounds. A twofold dilution series of compounds in exposure medium (range 100–3.2 μg/mL) was made in a separate 96-well plate, and 100 µL of each of these dilutions was added to the assay plates for 24 hours at 37°C in the presence of 5% CO2. Control wells contained cells with DMEM, DMEM + 1% DMSO (vehicle control), or DMEM + 20% DMSO. Wells without cells were also included as negative control. After exposure, the medium was replaced with 100 µL 10% Alamar Blue (Invitrogen) in exposure medium. After 45 min incubation at 37°C and 5% CO2, fluorescence was measured on a Spectramax M5 plate reader at λex = 541 nm, λem = 590 nm. Cell viability compared with the vehicle control was calculated, and inhibition curves for each compound were fitted (non-linear curve fit, four variables, bottom constrained = 0) in Prism 9 (GraphPad Software, San Diego, USA).

in vitro = details: human
Description: as §3, §4

[3] = test system: Enterococcus faecium vanA (strain E1654); test: MIC (microdilution) against E. faecium; details: Enterococcus faecium, read-out: MIC E. faecium
Description: as §1, §2

sheep red blood cells = test: Haemolysis assay; details: if considered to cause haemolysis to red blood cells
Description: The hemolysis assay was adapted from the study by Evans et al. ([65]). Briefly, sheep RBC 10% washed pooled cells in PBS (Rockland Immunochemicals, Limerick, PA, USA) were diluted 1:5 to give a final concentration of 2% RBCs in PBS. […] A non-treated control, 1% DMSO (vehicle control), and complete cell lysis control (Triton-X 2%) were included in each assay. After exposure samples were centrifuged at 4°C at 1,000 g for 15 min and 100 µL of supernatant transferred to a clean well in a 96-well, clear, flat-bottom plate (Corning Incorporated). Released hemoglobin was measured by absorption at 540 nm using a Spectramax M5 plate reader. The experiments were performed in quadruplicate. The percentage of hemolysis was calculated as follows:
Hemolysis=A540nm,testcondition−A540nm,DMSOcontrol/A540nm,TritonXControl−A540nm,DMSOcontrol

[4] = test system: Escherichia coli JW5503 (ΔtolC); test: MIC (microdilution) against E. coli JW5503; details: Escherichia coli, read-out: MIC E. coli JW5503
Source text: (§5) We also tested the inhibitory activity of compounds in two different E. coli mutants: (i) E. coli JW5503 that lacks TolC efflux pumps and (ii) E. coli D21f2 that has a defective LPS inner core increasing permeability of the outer membrane. E. coli D21f2 has a slightly higher susceptibility to DPP compounds than E. coli ATCC25922.
as §1, §2

S. aureus str. Newman = test: Membrane permeability using SYTOX-Green, flow cytometry; details: for % FITC stained bacteria 0.5 xMIC: 0.5× MIC; for % FITC stained bacteria 0.5 xMIC / % FITC stained bacteria 1 xMIC / % FITC stained bacteria 2 xMIC: 5 min exposure; for % FITC stained bacteria 1 xMIC: 1× MIC; for % FITC stained bacteria 2 xMIC: 2× MIC; for Membrane damage: if considered to cause membrane damage to S. aureus
Description: S. aureus str. Newman was grown to exponential phase (OD600 = 0.4) in MHB media. […] Nisin (Sigma-Aldrich) and novobiocin (Sigma-Aldrich) were used as positive and negative controls for membrane permeabilization, and stained and unstained untreated controls were also included in each assay. After exposure, samples were centrifuged at 4,000 r.p.m. for 5 min and resuspended in PBS. Bacteria were dyed by adding the fluorescent nuclear stain SYTOX Green (Molecular Probes, Invitrogen) to a final concentration of 0.5 µM and incubating for 5 min in the dark. Samples were centrifuged again and resuspended with PBS to remove unbound stain. Three hundred microliters of each sample was transferred to a clean well in a 96-well clear-bottom plate (Corning Incorporated). Fluorescence was measured in CytoFLEX flow cytometer (Beckman Coulter, Brea, CA, USA) using the green (FITC) channel with the excitation wavelength at 488 nm. Overlay histograms were created with CytExpert Software (Beckman Coulter, Brea, CA, USA).

[5] = test system: Staphylococcus aureus str. Newman; test: Minimal inhibitory concentration (microdilution) against S. aureus; details: for MIC S. aureus: Table ST3
Description: as §1, §2

[6] = test system: Pseudomonas aeruginosa ATCC 27853; test: MIC (microdilution) against P. aeruginosa; details: Pseudomonas aeruginosa, ATCC27853; Table ST1; read-out: MIC P. aeruginosa
Description: as §1, §2

[7] = test system: Pasteurella haemolytica ATCC 29701; test: MIC (microdilution) against P. haemolytica; details: Mannheimia haemolytica, ATCC29701, read-out: MIC P. haemolytica, Table ST1
Description: as §1, §2

[8] = test system: Escherichia coli D21f2 with a truncated LPS barrier; test: MIC (microdilution) against E. coli D21f2; details: read-out: MIC E coli D21f2
Source text: as §5, §1, §2

[9] = Staphylococcus aureus, NEWMAN, Fig 2
[10] = Staphylococcus aureus, NEWMAN, Fig 2, value in parentheses
[11] = Table ST3, value in parentheses

CCOc1ccc(-c2[nH]nc(C(F)(F)F)c2-c2ccccc2)c(O)c1 [DPP-3]
MIC [1]: > 250 µg/mL
MIC [2]: > 250 µg/mL
Selectivity Index (HEK293 cells): 4.1
CC50 at 24 h (in vitro): 25.6 µg/mL and 76.5 µM
MIC [3]: > 250 µg/mL
Haemolysis (sheep red blood cells): YES
MIC [4]: 1.56 µg/mL (≈ 4.48 µM)
% FITC stained bacteria 0.5 xMIC (S. aureus str. Newman): 35.78%
% FITC stained bacteria 1 xMIC (S. aureus str. Newman): 49.41%
% FITC stained bacteria 2 xMIC (S. aureus str. Newman): 58.28%
Membrane damage (S. aureus str. Newman): YES
MIC [5, 9]: 6.25 µg/mL
MIC [5, 10]: 17.9 µM
MIC S. aureus [5]: 6.25 µg/mL (≈ 17.9 µM)
MIC [5, 11]: 17.86 µM
MIC [6]: > 250 µg/mL
MIC [7]: 50 µg/mL (≈ 144 µM)

Oc1cc(OCc2ccccc2)ccc1-c1[nH]nc(C(F)(F)F)c1-c1ccc(Cl)cc1 [DPP-8]
MIC [1]: 1.56 µg/mL (≈ 3.51 µM)
MIC [2]: > 250 µg/mL
Selectivity Index (HEK293 cells): 9.14
CC50 at 24 h (in vitro): 14.2 µg/mL and 32 µM
MIC [3]: 3.12 µg/mL (≈ 7.01 µM)
Haemolysis (sheep red blood cells): YES
MIC [4]: 12.5 µg/mL (≈ 28.1 µM)
% FITC stained bacteria 0.5 xMIC (S. aureus str. Newman): 12.26%
% FITC stained bacteria 1 xMIC (S. aureus str. Newman): 32.15%
% FITC stained bacteria 2 xMIC (S. aureus str. Newman): 36.10%
Membrane damage (S. aureus str. Newman): YES
MIC [5, 9]: 1.56 µg/mL
MIC [5, 10]: 3.51 µM
MIC S. aureus [5]: 1.56 µg/mL (≈ 3.51 µM)
MIC [5, 11]: 3.51 µM
MIC [6]: > 250 µg/mL
MIC [7]: 250 µg/mL (≈ 562 µM)
MIC [8]: 25 µg/mL (≈ 56.2 µM)

Oc1ccc(-c2onc(C(F)(F)F)c2-c2ccc(Cl)cc2)c(O)c1 [DPP-11]
MIC [1]: 12.5 µg/mL (≈ 35.1 µM)
MIC [2]: > 250 µg/mL
Selectivity Index (HEK293 cells): 1.10
CC50 at 24 h (in vitro): 3.41 µg/mL and 9.61 µM
MIC [3]: 12.5 µg/mL (≈ 35.1 µM)
Haemolysis (sheep red blood cells): YES
MIC [4]: 1.56 µg/mL (≈ 4.39 µM)
% FITC stained bacteria 0.5 xMIC (S. aureus str. Newman): 24.77%
% FITC stained bacteria 1 xMIC (S. aureus str. Newman): 28.12%
% FITC stained bacteria 2 xMIC (S. aureus str. Newman): 57.97%
Membrane damage (S. aureus str. Newman): YES
MIC [5, 9]: 3.12 µg/mL
MIC [5, 10]: 8.76 µM
MIC S. aureus [5]: 3.12 µg/mL (≈ 8.77 µM)
MIC [5, 11]: 8.76 µM
MIC [6]: > 250 µg/mL
MIC [7]: 62.5 µg/mL (≈ 176 µM)
MIC [8]: 25 µg/mL (≈ 70.3 µM)

Source: paper PMC11302729, “Repurposing Hsp90 inhibitors as antimicrobials targeting two-component systems identifies compounds leading to loss of bacterial membrane integrity” (Microbiology Spectrum, 2024)
